Experimental data published in patent US12473282B2, “Biphenyl fluorine double bond derivative, preparation method therefor, and pharmaceutical application thereof” (Abbisko Therapeutics Co., Ltd., priority 2020, dated 2025).

Legend:
[1] = Pharmacokinetic assay in mice; assay type: in vivo; details: male, mouse; ICR mice, PO 10 mg/kg, plasma, original compound detected
Experimental: III. Pharmacokinetic Assay in Mice
The purpose of this study was to study the pharmacokinetic behaviors of some compounds of the present invention, and administration routes were: per oral administration (PO) to ICR mice at a dose of 10 mg/kg.
The compounds used in this test came from the compounds of the specific examples of the present invention.
ICR mice, male, N=3, with the original source of Shanghai Sippr-BK Laboratory Animal Co. Ltd.
2.3 Preparation and Administration of Drug
The compounds were weighed, and dissolved in a solvent of 0.5% SDS+0.5% CMCNa. The mixture solutions were mixed well by shaking and ultrasonic treatment to obtain colorless clear solutions. The solutions were orally administered to nine mice after an overnight fast. The dosage of administration was 10 mg/kg.
1) With about 90 μL/time point, blood was drawn from the submaxillary vein, and heparin sodium was added for anticoagulation. The blood samples were placed onto the ice, and were centrifuged (centrifugation conditions: 8000 r/min, 6 min, 2-8° C.) within 1 hr to obtain plasmas.
2) The time points for blood sampling were at 0 hr, 0.25 hr, 0.5 hr, 1 hr, 2 hrs, 4 hrs, 6 hrs, 8 hrs and 24 hrs after administration. The samples were stored in a refrigerator at −20° C.
3) 40 μL of plasma sample was added to 160 μL of cold acetonitrile containing an internal standard, and the mixture solution was vortexed for 3 min and centrifuged at 11,000 r/min for 5 min.
4) 100 μL of supernate was taken and added to 100 μL of water, and 5 μL of the sample was taken and analyzed by LC/MS/MS.
Only the original compounds were analyzed for the compounds from the examples of the present invention and the reference compound from Example 158 of WO2020011209A1; and both the original compounds and possible products of ester hydrolysis, namely Example 217, were analyzed for the reference compound from Example 216 of WO2020011209A1.

[2] = biological target: interaction between PD-1 and PD-L1 (Homo sapiens (Human), UniProt Q9NZQ7); test: PD1-PDL1 HTRF binding activity test (Cisbio PD-1/PD-L1 binding assay kit)
Sequence of interaction between PD-1 and PD-L1 (Q9NZQ7 19-238): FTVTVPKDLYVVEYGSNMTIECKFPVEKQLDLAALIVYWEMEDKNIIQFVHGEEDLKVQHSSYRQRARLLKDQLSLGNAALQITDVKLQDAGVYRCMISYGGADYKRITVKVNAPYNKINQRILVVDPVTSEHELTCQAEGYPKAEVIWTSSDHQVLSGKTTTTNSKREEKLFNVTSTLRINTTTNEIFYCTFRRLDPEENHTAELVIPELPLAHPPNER
Experimental: I. PD1-PDL1 HTRF Binding Activity Test
The effect of compounds of the examples of the present invention on the interaction between PD-1 and PD-L1 was determined by the PD-1/PD-L1 binding assay kit from Cisbio (#64ICP01PEG or 64ICP01PEH). The detailed experimental process was as follows: • 1. Pre-diluted compound solution, 4 μL of Tag1-PD-L1 and 4 μL of Tag2-PD1 were added to each well of a 384-well plate; • 2. After the mixture was incubated at room temperature for 15 min, 5 μL of anti-Tag1-Eu3+ antibody and 5 μL of anti-Tag2-XL665 antibody were then added; • 3. After incubated for 2 hrs at room temperature or overnight at 4° C., plates were read on Envision of Pelkin Elmer; and readings at 665 nm and 620 nm were recorded, and the ratio of the two readings was taken as a reading for each well; • 4. The reading of each well after compound treatment was compared with the reading of DMSO treated wells to obtain the percent inhibition of the compound; • 5. IC50 values of compounds and positive compounds of the examples of the present invention were determined by non-linear regression analysis of percent inhibition at different compound concentrations. II. Jurkat Reporter Gene Cellular Assay

[3] = Jurkat reporter gene cellular assay; assay type: cell-based; details: Homo sapiens; Jurkat/NF-κB-luc/PD1 + Raji-PD-L1 coculture, OKT3 1 μg/mL, 6 hrs, activation fold; read-out: Cell Activity EC50
How it was run: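 Jurkat cells stably expressing human PD-1 and NF-κB-luciferase co-cultured with PD-L1-expressing Raji cells (5×10^4 each/well) under OKT3 (1 μg/mL final) with compound. Raji cells preincubated 20 min; luminescence read 6 h after Jurkat addition. EC50 from non-linear regression of fold activation over DMSO.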

| SMILES | AUC(0-t) [1] [ng·h/mL] | Cmax [1] [ng/mL] | MRT [1] [h] | Tmax [1] [h] | half-life [1] [h] | IC50 [2] [nM] | EC50 [3] [nM] |
| --- | --- | --- | --- | --- | --- | --- | --- |
| COc1cc(/C(F)=C/c2cccc(-c3cccc(NC(=O)c4nc5c(n4C)CCN(CCC46CCC(C(=O)O)(CC4)C6)C5)c3Cl)c2Cl)ncc1CNC(C)C [Example 41, (Z)-4-(2-(2-((2,2′-dichloro-3′-(2-fluoro-2-(5-((isopropylamino)methyl)-4-methoxypyridin-2-yl)vinyl)-[1,1′-biphenyl]-3-yl)carbamoyl)-l-methyl-1,4,6,7-tetrahydro-5H-imidazo[4,5-c]pyridin-5-yl)ethyl) bicyclo[2.2.1]heptane-1-carboxylic acid] |  |  |  |  |  | 0.249 | 86.7 |
| COc1cc(/C(F)=C/c2cccc(-c3cccc(NC(=O)c4nc5c(n4C)CCN(CCC46CCC(C(=O)O)(CC4)C6)C5)c3Cl)c2Cl)ncc1CN1CCC(C)(O)C1 (centres unmarked) [Example 49, (Z)-4-(2-(2-((2,2′-dichloro-3′-(2-fluoro-2-(5-((3-hydroxy-3-methylpyrrolidin-1-yl)methyl)-4-methoxypyridin-2-yl)vinyl)-[1,1′-biphenyl]-3-yl)carbamoyl)-1-methyl-1,4,6,7-tetrahydro-5H-imidazo[4,5-c]pyridin-5-yl)ethyl)bicyclo[2.2.1]heptane-1-carboxylic acid] | 15100 | 1010 | 7.4 | 2 | 4 | 0.232 | 46.2 |
| COc1cc(/C(F)=C/c2cccc(-c3cccc(NC(=O)c4nc5c(n4C)CCN(CCC46CCC(C(=O)O)(CC4)C6)C5)c3Cl)c2Cl)ncc1CNC(C)(C)C [Example 50, (Z)-4-(2-(2-((3′-(2-(5-((tert-butylamino)methyl)-4-methoxypyridin-2-yl)-2-fluorovinyl)-2,2′-dichloro-[1,1′-biphenyl]-3-yl)carbamoyl)-1-methyl-1,4,6,7-tetrahydro-5H-imidazo[4,5-c]pyridin-5-yl)ethyl) bicyclo[2.2.1]heptane-1-carboxylic acid] |  |  |  |  |  | 0.731 | 54 |
| COc1cc(/C(F)=C/c2cccc(-c3cccc(NC(=O)c4nc5c(n4C)CCN(CCC46CCC(C(=O)O)(CC4)C6)C5)c3Cl)c2Cl)ncc1CN1CC[C@@](C)(C(=O)O)C1 [Example 75, (R,Z)-1-((6-(2-(3′-(5-(2-(4-carboxybicyclo[2.2.1]heptan-1-yl)ethyl)-1-methyl-4,5,6,7-tetrahydro-1H-imidazo[4,5-c]pyridine-2-carboxamido)-2,2′-dichloro-[1,1′-biphenyl]-3-yl)-1-fluorovinyl)-4-methoxypyridin-3-yl)methyl)-3-methylpyrrolidine-3-carboxylic acid] | 2650 | 806 | 2.9 | 1.8 | 1.8 | 0.185 | 54.4 |

The remaining molecules from weak to strong by IC50 [2], led by results:

| AUC(0-t) [1] [ng·h/mL] | Cmax [1] [ng/mL] | MRT [1] [h] | Tmax [1] [h] | half-life [1] [h] | IC50 [2] [nM] | EC50 [3] [nM] | SMILES |
| --- | --- | --- | --- | --- | --- | --- | --- |
| 2490 | 323 | 8.3 | 4 | 5.2 | 0.688 | 258 | Cc1c(/C=C(\F)c2nc3c(n2C)CCN(C(C)C)C3)cccc1-c1cccc(NC(=O)c2nc3c(n2C)CCN(CCC24CCC(C(=O)O)(CC2)C4)C3)c1C [Example 1, (Z)-4-(2-(2-((3′-(2-fluoro-2-(5-isopropyl-1-methyl-4,5,6,7-tetrahydro-1H-imidazo[4,5-c]pyridin-2-yl)vinyl)-2,2′-dimethyl-[1,1′-biphenyl]-3-yl)carbamoyl)-1-methyl-1,4,6,7-tetrahydro-5H-imidazo[4,5-c]pyridin-5-yl)ethyl)bicyclo[2.2.1]heptane-1-carboxylic acid] |
|  |  |  |  |  | 0.299 | 47.5 | COc1cc(/C(F)=C/c2cccc(-c3cccc(NC(=O)c4nc5c(n4C)CCN(CCC46CCC(C(=O)O)(CC4)C6)C5)c3Cl)c2Cl)ncc1CN1CC[C@H](O)C1 [Example 59, (S,Z)-4-(2-(2-((2,2′-dichloro-3′-(2-fluoro-2-(5-((3-hydroxypyrrolidin-1-yl)methyl)-4-methoxypyridin-2-yl)vinyl)-[1,1′-biphenyl]-3-yl)carbamoyl)-1-methyl-1,4,6,7-tetrahydro-5H-imidazo[4,5-c]pyridin-5-yl)ethyl)bicyclo[2.2.1]heptane-1-carboxylic acid] |
| 1950 | 173 | 9.6 | 6 | 5 | 0.193 | 44.1 | COc1cc(/C(F)=C/c2cccc(-c3cccc(NC(=O)c4nc5c(n4C)CCN(CCC46CCC(C(=O)O)(CC4)C6)C5)c3Cl)c2Cl)ncc1CN1CCCC1 [Example 58, (Z)-4-(2-(2-((2,2′-dichloro-3′-(2-fluoro-2-(4-methoxy-5-(pyrrolidin-1-ylmethyl)pyridin-2-yl)vinyl)-[1,1′-biphenyl]-3-yl)carbamoyl)-1-methyl-1,4,6,7-tetrahydro-5H-imidazo[4,5-c]pyridin-5-yl)ethyl) bicyclo[2.2.1]heptane-1-carboxvlic acid] |
| 590 | 442 | 2 | 0.5 | 1.1 | 0.186 | 50.6 | COc1cc(/C(F)=C/c2cccc(-c3cccc(NC(=O)c4nc5c(n4C)CCN(CCC46CCC(C(=O)O)(CC4)C6)C5)c3Cl)c2Cl)ncc1CN1CC[C@@H](C(=O)O)C1 [Example 73, (R,Z)-1-((6-(2-(3′-(5-(2-(4-carboxybicyclo[2.2.1]heptan-1-yl)ethyl)-1-methyl-4,5,6,7-tetrahydro-1H-imidazo[4,5-c]pyridine-2-carboxamido)-2,2′-dichloro-[1,1′-biphenyl]-3-yl)-1-fluorovinyl)-4-methoxypyridin-3-yl)methyl)pyrrolidine-3-carboxylic acid] |
